Assays:
[1] = tested on: Puccinia recondita f. sp. tritici; assay: Example A1: Puccinia recondita f. sp. tritici / wheat / leaf disc preventative (brown rust); type: in vivo; settings: foliar, 200 ppm in the applied formulation, wheat leaf segments, compared to untreated control leaf disks, read-out: disease control
Procedure: (§1) Leaf disks or leaf segments of various plant species are cut from plants grown in a greenhouse. The cut leaf disks or segments are placed in multiwell plates (24-well format) onto water agar. The leaf disks are sprayed with a test solution before (preventative) or after (curative) inoculation. Compounds to be tested are prepared as DMSO solutions (max. 10 mg/ml) which are diluted to the appropriate concentration with 0.025% Tween20 just before spraying. The inoculated leaf disks or segments are incubated under defined conditions (temperature, relative humidity, light, etc.) according to the respective test system. A single evaluation of disease level is carried out 3 to 14 days after inoculation, depending on the pathosystem. Percent disease control relative to the untreated check leaf disks or segments is then calculated.
Wheat leaf segments cv. Kanzler were placed on agar in multiwell plates (24-well format) and sprayed with the formulated test compound diluted in water. […] The inoculated leaf segments were incubated at 19° C. and 75% relative humidity (rh) under a light regime of 12 hours light/12 hours darkness in a climate cabinet and the activity of a compound was assessed as percent disease control compared to untreated when an appropriate level of disease damage appears in untreated check leaf segments (7 to 9 days after application). […]

[2] = tested on: Puccinia recondita f. sp. tritici; assay: Example A2: Puccinia recondita f. sp. tritici / wheat / leaf disc curative (brown rust); type: in vivo; settings: foliar, 200 ppm in the applied formulation, wheat leaf segments, compared to untreated control leaf disks, read-out: disease control
Procedure: as §1
Wheat leaf segments cv. Kanzler are placed on agar in multiwell plates (24-well format). The leaf segments are then inoculated with a spore suspension of the fungus. […] The leaf segments were incubated at 19° C. and 75% relative humidity under a light regime of 12 hours light/12 hours darkness in a climate cabinet and the activity of a compound was assessed as percent disease control compared to untreated when an appropriate level of disease damage appears in untreated check leaf segments (6 to 8 days after application). […]

Phakopsora pachyrhizi = assay: Example A3: Phakopsora pachyrhizi / soybean / leaf disc preventative (Asian soybean rust); type: in vivo; settings: foliar, 200 ppm in the applied formulation, soybean leaf disks, compared to untreated control leaf disks, read-out: disease control
Procedure: as §1
Soybean leaf disks are placed on water agar in multiwell plates (24-well format) and sprayed with the formulated test compound diluted in water. One day after application leaf discs are inoculated by spraying a spore suspension on the lower leaf surface. […] The activity of a compound is assessed as percent disease control compared to untreated when an appropriate level of disease damage appears in untreated check leaf disks (12 to 14 days after application). […]

[3] = tested on: Glomerella lagenarium (Colletotrichum lagenarium); assay: Example A4: Glomerella lagenarium (Colletotrichum lagenarium) liquid culture / cucumber / preventative (anthracnose); type: cell-based; settings: Colletotrichum orbiculare, 20 ppm in the applied formulation, compared to untreated control, read-out: disease control
Procedure: Mycelia fragments or conidia suspensions of a fungus prepared either freshly from liquid cultures of the fungus or from cryogenic storage, are directly mixed into nutrient broth. DMSO solutions of the test compound (max. 10 mg/ml) are diluted with 0.025% Tween20 by a factor of 50 and 10 μl of this solution is pipetted into a microtiter plate (96-well format). The nutrient broth containing the fungal spores/mycelia fragments is then added to give an end concentration of the tested compound. The test plates are incubated in the dark at 24° C. and 96% relative humidity. The inhibition of fungal growth is determined photometrically after 2 to 7 days, depending on the pathosystem, and percent antifungal activity relative to the untreated check is calculated.
Conidia of the fungus from cryogenic storage are directly mixed into nutrient broth (PDB—potato dextrose broth). After placing a (DMSO) solution of test compound into a microtiter plate (96-well format), the nutrient broth containing the fungal spores is added.
The following compounds at 20 ppm in the applied formulation give at least 80% disease control in this test when compared to untreated control under the same conditions, which show extensive disease development.

Row | Structure (SMILES) | melting point [°C] | pest or weed control at 200 ppm [1] [%] | pest or weed control at 200 ppm [2] [%] | pest or weed control at 200 ppm (Phakopsora pachyrhizi) [%] | inhibition of growth at 20 ppm [3] [%]
1 | COCC(=O)N(Cc1ccc(-c2noc(C(F)(F)F)n2)cc1)CC(F)(F)F [X.09, 2-methoxy-N-(2,2,2-trifluoroethyl)-N-[[4-[5-(trifluoromethyl)-1,2,4-oxadiazol-3-yl]phenyl]methyl]acetamide] | 92.6 to 94.3 | – | – | – | –
2 | CON(Cc1ccc(-c2noc(C(F)(F)F)n2)cc1)C(=O)NC1CC1 [X.15, 3-cyclopropyl-1-methoxy-1-[[4-[5-(trifluoromethyl)-1,2,4-oxadiazol-3-yl]phenyl]methyl]urea] | 84 to 87 | – | – | – | –
3 | CCONC(=O)N(Cc1ccc(-c2noc(C(F)(F)F)n2)cc1)OC [X.16, 3-ethoxy-1-methoxy-1-[[4-[5-(trifluoromethyl)-1,2,4-oxadiazol-3-yl]phenyl]methyl]urea] | 107 to 110 | – | – | – | –
4 | C=CCNC(=O)N(Cc1ccc(-c2noc(C(F)(F)F)n2)cc1)OC [X.17, 3-allyl-1-methoxy-1-[[4-[5-(trifluoromethyl)-1,2,4-oxadiazol-3-yl]phenyl]methyl]urea] | 64 to 70 | – | – | – | –
5 | CON(Cc1ccc(-c2noc(C(F)(F)F)n2)cc1)C(=O)NC(C)C [X.19, 3-isopropyl-1-methoxy-1-[[4-[5-(trifluoromethyl)-1,2,4-oxadiazol-3-yl]phenyl]methyl]urea] | 106 to 107.3 | – | – | – | –
6 | C#CCNC(=O)N(Cc1ccc(-c2noc(C(F)(F)F)n2)cc1)OC [X.20, 1-methoxy-3-prop-2-ynyl-1-[[4-[5-(trifluoromethyl)-1,2,4-oxadiazol-3-yl]phenyl]methyl]urea] | 88.9 to 90.6 | – | – | – | –
7 | CN(Cc1ccc(-c2noc(C(F)(F)F)n2)cc1)C(=O)NCC1CC1 [X.22, 3-(cyclopropylmethyl)-1-methyl-1-[[4-[5-(trifluoromethyl)-1,2,4-oxadiazol-3-yl]phenyl]methyl]urea] | – | ≥ 80 | ≥ 80 | ≥ 80 | ≥ 80
8 | CCN(Cc1ccc(-c2noc(C(F)(F)F)n2)cc1)C(=O)NCC(F)(F)F [X.23, 1-ethyl-3-(2,2,2-trifluoroethyl)-1-[[4-[5-(trifluoromethyl)-1,2,4-oxadiazol-3-yl]phenyl]methyl]urea] | – | ≥ 80 | ≥ 80 | ≥ 80 | ≥ 80

Source: patent US11974572B2, “Fungicidal compositions” (SYNGENTA PARTICIPATIONS AG, priority 2017, dated 2024)
